We go through six compounds from patent EP4722219A1 (Gan & Lee Pharmaceuticals Co., Ltd., priority 2023, dated 2024).

What all share (type): cell-based
The subject of one test is MCF-7 cells. The test can be described thus: Inhibition of cell proliferation in MCF-7 cells (CCK-8). The note with it: MCF-7 cell proliferation, 6 days treatment. The essentials: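 IC50 from CCK-8 viability-based inhibition after 6-day treatment of MCF-7 cells (800 cells/well, 10% FBS DMEM, 37 °C, 5% CO2) with serially varied compound concentrations.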
Test [1] deals with T1, ERα (Homo sapiens, UniProt P03372).
T1 sequence (P03372 1-595): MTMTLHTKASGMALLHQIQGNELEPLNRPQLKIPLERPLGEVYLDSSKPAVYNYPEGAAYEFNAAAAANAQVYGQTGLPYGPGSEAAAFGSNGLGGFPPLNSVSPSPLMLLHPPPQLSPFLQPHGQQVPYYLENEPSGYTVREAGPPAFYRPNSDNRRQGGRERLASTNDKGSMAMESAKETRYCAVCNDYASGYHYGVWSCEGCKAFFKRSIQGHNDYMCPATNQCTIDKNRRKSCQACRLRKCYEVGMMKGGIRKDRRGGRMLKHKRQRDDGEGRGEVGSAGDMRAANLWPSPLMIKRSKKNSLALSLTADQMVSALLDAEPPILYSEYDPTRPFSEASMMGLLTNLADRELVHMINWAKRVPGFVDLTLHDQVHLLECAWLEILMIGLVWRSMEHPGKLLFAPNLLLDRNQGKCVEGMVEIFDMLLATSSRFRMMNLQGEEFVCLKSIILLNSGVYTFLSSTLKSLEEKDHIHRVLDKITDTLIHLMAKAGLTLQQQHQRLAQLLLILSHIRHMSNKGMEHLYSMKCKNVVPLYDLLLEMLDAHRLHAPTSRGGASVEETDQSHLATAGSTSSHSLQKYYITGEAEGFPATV
As to the kind of experiment: ERα degradation in T-47D cells (Western blot). The note with it: 4 hours. The method, then: (§1) Western blotting: The total protein concentration in the collected cell lysate supernatant was determined using the BCA protein concentration assay kit (enhanced) (P0009, Beyotime). Based on the total protein concentration determined by BCA, the protein concentration was adjusted to 1 µg/µL using RIPA lysis buffer and 5× SDS-PAGE protein loading buffer (MB01015, GenScript). The protein was denatured in a 95°C water bath for 5 minutes. After denaturation, the condensed water on the tube wall was collected by centrifugation and used as the loading sample. 20µL of the loading sample (20 µg of total protein) was added to the sample well of a 12% precast gel (M00669, GenScript). Electrophoresis was performed at 100 V for 20 minutes, followed by switching to 150 V for 40 minutes. After electrophoresis, the proteins from the SDS-PAGE gel were transferred to a PVDF membrane at a constant voltage of 100 V for 60 minutes. After transfer, the PVDF membrane corresponding to the ERα protein and internal reference protein was cut and incubated in 1× QµickBlock blocking buffer (P0252, Beyotime) for 30 minutes at room temperature on a shaker. After blocking, the ERα primary antibody (1:1000, 8644S, CST) was added and incubated overnight at 4°C on a shaker. The PVDF membrane was washed three times with 1× TBST buffer for 5 minutes each. Rabbit IgG (H+L) secondary antibody (1:7500, SA5-35571, Invitrogen) was added and incubated for 1 hour at room temperature on a shaker. The membrane was then washed again three times with 1× TBST buffer for 5 minutes each. Finally, the membrane was imaged using a dual-color infrared laser imaging system (Odyssey DLx, LICOR). Protein maps were analyzed for grayscale value using Image Studio Lite software. The grayscale correction value for each sample was calculated using the formula: grayscale correction value = grayscale value of the target protein / grayscale value of the corresponding internal reference. Then the grayscale correction values of the compound group and the control group were compared to calculate the degradation rate of the compound. Table 4 Degradation rate of ERα by PROTAC compounds of the present invention and positive control in MCF-7 cells (%)
Test Example 5 Degradation of ERα by the PROTAC compounds disclosed in the present invention in T-47D cells
T-47D (ATCC) cells were cultured in PRMI-1640 medium (30-2001, ATCC) containing 10% FBS (10099141C, Gibco) at 37°C and 5% CO2 until they entered the logarithmic growth phase. T-47D cells were seeded at a density of 3×10^5 cells/well in a 6-well plate and incubated at 37°C, 5% CO2 for 24 hours. After cell attachment, 1 µL of compound dimethyl sulfoxide solution (final concentration 0.15-1000 nM) was added and incubated for another 4 hours at 37°C, 5% CO2 incubator. After 4 hours, the culture medium was discarded, and each well was washed once with 1 mL of pre-chilled 1× DPBS. The cells were then lysed with 50 µL of RIPA lysis buffer (P0013B, Beyotime) and 1× protease inhibitor cocktail (P1005, Beyotime). After incubation on ice for 20 minutes, the cells were centrifuged at 14,000 g at 4°C for 30 minutes. The supernatant was carefully collected and analyzed for ERα protein levels by immunoblotting. Table 5 Degradation rate of ERα by PROTAC compounds of the present invention and positive control sample in T-47D cells (%)
A general note: In western blotting, separated proteins are transferred to a membrane and probed.

For another test, the system named is T-47D cells. As to the kind of experiment: Inhibition of cell proliferation in T-47D cells (CCK-8). The conditions noted are these: 6 days treatment, CCK-8 cell viability. The procedure, abridged: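 Viability by CCK-8 after a 6-day, 37 °C/5% CO2 exposure of T-47D cells (3,000/well, RPMI-1640 + 10% FBS) to graded PROTAC concentrations. Inhibition rates gave the IC50.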

For test [2], the target named is T1, ERα. The test can be described thus: ERα degradation in MCF-7 cells (Western blot). Set-up: host or cells: MCF-7. The note with it: 4 hours. As to the method:
Test Example 4 Effect of PROTAC Compounds Disclosed in the Present Invention on ERα Degradation in MCF-7 Cells
MCF-7 (ATCC) cells were cultured in DMEM medium (11995-065, Gibco) containing 10% FBS (10099141C, Gibco) at 37°C and 5% CO2 until they entered the logarithmic growth phase. MCF-7 cells were plated at a density of 3×10^5 cells/well in a 6-well plate and incubated at 37°C, 5% CO2 for 24 hours. After cell attachment, 1µL of compound in dimethyl sulfoxide (final concentration 0.15-1000nM) was added and incubated for another 4 hours at 37°C, 5% CO2 incubator. After 4 hours, the culture medium was discarded, and each well was washed once with 1 mL of pre-chilled 1× DPBS. The cells were then lysed with 50 µL of RIPA lysis buffer (P0013B, Beyotime) and 1× protease inhibitor cocktail (P1005, Beyotime). After incubation on ice for 20 minutes, the cells were centrifuged at 14,000 g at 4°C for 30 minutes. The supernatant was carefully collected and analyzed for ERα protein levels by immunoblotting.
as §1

For the compound `Cn1c(=O)n(C2CCC(=O)NC2=O)c2ccc3c(c21)OCC31CCN(C2CCC3(CC2)CCN(c2ccc([C@@H]4c5ccc(O)cc5CC[C@@H]4c4ccccc4)cc2)CC3)CC1` (stereo partly drawn) [ER-P-16, 3-(1'-(3-(4-((1R,2S)-6-hydroxy-2-phenyl-1,2,3,4-tetrahydronaphthalen-1-yl)phenyl)-3-azaspiro[5.5]undecan-9-yl)-1-methyl-2-oxo-1,2-dihydro-3H,7H-spiro[benzofuro[6,7-d]imidazole-6,4'-piperidin]-3-yl)piperidine-2,6-dione], the IC50 (as a rule, the concentration that gives 50% inhibition) with MCF-7 cells (Homo sapiens, MCF7, 144 h) turned out to be 0.885 µM; in the test on T-47D cells (Homo sapiens, T47D, 144 h), 0.00062 µM. The “Degradation rate of ERα in T-47D cells (%)” value was 69% on ERα [1] (1nM) and 73% on ERα [1] (10nM). Besides, the results for the “Degradation rate of ERα in MCF-7 cells (%)” value on ERα [2] (1nM) and at ERα [2] (10nM) were 43% and 62%, respectively.
In the case of `Cn1c(=O)n(C2CCC(=O)NC2=O)c2ccc3c(c21)OCC31CCN(C2CC3(CCN(c4ccc([C@@H]5c6ccc(O)cc6CC[C@@H]5c5ccccc5)cc4)CC3)C2)CC1` (stereo partly drawn) [ER-P-17, 3-(1'-(7-(4-((1R,2S)-6-hydroxy-2-phenyl-1,2,3,4-tetrahydronaphthalen-1-yl)phenyl)-7-azaspiro[3.5]nonan-2-yl)-1-methyl-2-oxo-1,2-dihydro-3H,7H-spiro[benzofuro[6,7-d]imidazole-6,4'-piperidin]-3-yl)piperidine-2,6-dione], the half-maximal inhibitory concentration (IC50) in the test on MCF-7 cells came to 4.56 µM; with T-47D cells it was 0.0209 µM. The “Degradation rate of ERα in T-47D cells (%)” value is recorded as 22% at ERα [1] (1nM) and 30% at ERα [1] (10nM). The “Degradation rate of ERα in MCF-7 cells (%)” value was determined as 37% at ERα [2] (1nM) and 33% on ERα [2] (10nM).
Turning to `Cn1c(=O)n(C2CCC(=O)NC2=O)c2ccc3c(c21)OCC31CCN(C2CC3(C2)CN(c2ccc([C@@H]4c5ccc(O)cc5CC[C@@H]4c4ccccc4)cc2)C3)CC1` (stereo partly drawn) [ER-P-18, 3-(1'-(2-(4-((1R,2S)-6-hydroxy-2-phenyl-1,2,3,4-tetrahydronaphthalen-1-yl)phenyl)-2-azaspiro[3.3]heptan-6-yl)-1-methyl-2-oxo-1,2-dihydro-3H,7H-spiro[benzofuro[6,7-d]imidazole-6,4'-piperidin]-3-yl)piperidine-2,6-dione], the IC50 in the test with MCF-7 cells (Homo sapiens, MCF7, 144 h) was found to be 7.24 µM; in the test with T-47D cells (Homo sapiens, T47D, 144 h), 0.0137 µM. Also, the “Degradation rate of ERα in T-47D cells (%)” value at ERα [1] (1nM) is 20%; at ERα [1] (10nM) it was 23%. In addition, the entries for the “Degradation rate of ERα in MCF-7 cells (%)” value on ERα [2] (1nM) and on ERα [2] (10nM) were 33% and 18%, respectively.
On to `Cn1c(=O)n(C2CCC(=O)NC2=O)c2ccc3c(c21)C1(CCN(C2CCC4(CC2)CN(c2ccc([C@@H]5c6ccc(O)cc6CC[C@@H]5c5ccccc5)cc2)C4)CC1)CO3` (stereo partly drawn) [ER-P-19, 3-(1'-(2-(4-((1R,2S)-6-hydroxy-2-phenyl-1,2,3,4-tetrahydronaphthalen-1-yl)phenyl)-2-azaspiro[3.5]nonan-7-yl)-1-methyl-2-oxo-1,2-dihydro-3H,7H-spiro[benzofuro[4,5-d]imidazole-8,4'-piperidin]-3-yl)piperidine-2,6-dione], for which the IC50 in the test with MCF-7 cells (Homo sapiens, MCF7, 144 h) amounted to 4.46 µM; in the test on T-47D cells (Homo sapiens, T47D, 144 h) it was 0.0103 µM. Besides, the figures for the “Degradation rate of ERα in T-47D cells (%)” value at ERα [1] (1nM) and at ERα [1] (10nM) were 6% and 15%, respectively. In addition, the figures for the “Degradation rate of ERα in MCF-7 cells (%)” value at ERα [2] (1nM) and at ERα [2] (10nM) were -8% and 7%, respectively.
Regarding `CN(C(=O)CN1CCC2(CC1)CCC1(CC2)COc2c1ccc1c2CN(C2CCC(=O)NC2=O)C1=O)C1CCC2(CC1)CN(c1ccc([C@@H]3c4ccc(O)cc4CC[C@@H]3c3ccccc3)cc1)C2` (stereo partly drawn) [ER-P-20, 2-(7-(2,6-dioxohesperidin-3-yl)-6-oxo-7,8-dihydro-2H,6H-dipyrazole[furo[2,3-e]isoindole-3,1'-cyclohexane-4',4'-piperidin]-1"-yl)-N-(2-(4-((1R,2S)-6-hydroxy-2-phenyl-1,2,3,4-tetrahydronaphthalen-1-yl)phenyl)-2-azaspiro[3.5]nonan-7-yl)-N-methylacetamide], the IC50 came to 2.23 µM in the test on MCF-7 cells (Homo sapiens, MCF7, 144 h) and 0.00502 µM in the test on T-47D cells (Homo sapiens, T47D, 144 h). Moreover, the “Degradation rate of ERα in T-47D cells (%)” value on ERα [1] (1nM) came to 38%; at ERα [1] (10nM), 66%. For the same compound, the results for the “Degradation rate of ERα in MCF-7 cells (%)” value at ERα [2] (1nM) and on ERα [2] (10nM) were 5% and 30%, respectively.
On to `C[C@@H]1Cc2cc(O)ccc2C(c2c(F)cc(N3CCC4(CCC(N5CC6(CCC7(CC6)COc6c7ccc7c6CN(C6CCC(=O)NC6=O)C7=O)C5)CC4)CC3)cc2F)N1CC(F)F` (stereo partly drawn) [ER-P-21, 3-(1-(3-(4-((3R)-2-(2,2-difluoroethyl)-6-hydroxy-3-methyl-1,2,3,4-tetrahydroisoquinolin-1-yl)-3,5-difluorophenyl)-3-azaspiro[5.5]undecan-9-yl)-6"-oxo-6",8"-dihydro-2"H,7"H-dispiro[azetidine-3,1'-cyclohexane-4',3"-furo[2,3-e]isoindol]-7"-yl)piperidine-2,6-dione], for which the IC50 with MCF-7 cells (Homo sapiens, MCF7, 144 h) was found to be 0.0151 µM; with T-47D cells (Homo sapiens, T47D, 144 h), 0.0013 µM. The “Degradation rate of ERα in T-47D cells (%)” value at ERα [1] (1nM) was determined as 42%; at ERα [1] (10nM), 65%. Also, the “Degradation rate of ERα in MCF-7 cells (%)” value at ERα [2] (1nM) is 50%; at ERα [2] (10nM), 69%.
